# Results reported in US20080139554A1, “SPIRO-PIPERIDINE DERIVATIVES” (priority 2006, published 2008).
# Biological target: T1, human V1a receptor (Homo sapiens, UniProt P37288)
# T1 construct: expressed in transfected cells; host or cells: HEK293 cells, transiently transfected; cell membranes
# Assay: human V1a receptor binding (3H-Vasopressin SPA)
# Conditions: displacement of 3H-Vasopressin; membranes of HEK293 cells transiently transfected with human V1a receptor; Ki by Cheng-Prussoff equation
# Procedure: The human V1a receptor was cloned by RT-PCR from total human liver RNA. The coding sequence was subcloned in an expression vector after sequencing to confirm the identity of the amplified sequence. […] Cell membranes were prepared from HEK293 cells transiently transfected with the expression vector and grown in 20 liter fermenters with the following protocol.
# 50 g of cells were resuspended in 30 ml freshly prepared ice cold Lysis buffer (50 mM HEPES, 1 mM EDTA, 10 mM MgCl2 adjusted to pH=7.4+complete cocktail of protease inhibitor (Roche Diagnostics)). The mixture was homogenized with Polytron for 1 min and sonicated on ice for 2×2 minutes at 80% intensity (Vibracell sonicator). The preparation was centrifuged 20 min at 500 g at 4° C., the pellet was discarded and the supernatant centrifuged 1 hour at 43'000 g at 4° C. (19'000 rpm). The pellet was resuspended in 12.5 ml Lysis buffer+12.5 ml Sucrose 20% and homogenized using a Polytron for 1-2 min. The protein concentration was determined by the Bradford method and aliquots were stored at −80° C. until use. For binding studies 60 mg Yttrium silicate SPA beads (Amersham) were mixed with an aliquot of membrane in binding buffer (50 mM Tris, 120 mM NaCl, 5 mM KCl, 2 mM CaCl2, 10 mM MgCl2) for 15 minutes with mixing. 50 ul of bead/membrane mixture was then added to each well of a 96 well plate, followed by 50 ul of 4 nM 3H-Vasopressin (American Radiolabeled Chemicals). For total binding measurement, 100 ul of binding buffer were added to the respective wells; for non-specific binding, 100 ul of 8.4 mM cold vasopressin were added; and for compound testing, 100 ul of a serial dilution of each compound in 2% DMSO was added. The plate was incubated 1 h at room temperature, centrifuged 1 min at 1000 g and counted on a Packard Top-Count. Non-specific binding counts were subtracted from each well and data was normalized to the maximum specific binding set at 100%. To calculate an IC 50 the curve was fitted using a non-linear regression model (XLfit) and the Ki was calculated using the Cheng-Prussoff equation.
# T1 sequence (P37288 whole entry): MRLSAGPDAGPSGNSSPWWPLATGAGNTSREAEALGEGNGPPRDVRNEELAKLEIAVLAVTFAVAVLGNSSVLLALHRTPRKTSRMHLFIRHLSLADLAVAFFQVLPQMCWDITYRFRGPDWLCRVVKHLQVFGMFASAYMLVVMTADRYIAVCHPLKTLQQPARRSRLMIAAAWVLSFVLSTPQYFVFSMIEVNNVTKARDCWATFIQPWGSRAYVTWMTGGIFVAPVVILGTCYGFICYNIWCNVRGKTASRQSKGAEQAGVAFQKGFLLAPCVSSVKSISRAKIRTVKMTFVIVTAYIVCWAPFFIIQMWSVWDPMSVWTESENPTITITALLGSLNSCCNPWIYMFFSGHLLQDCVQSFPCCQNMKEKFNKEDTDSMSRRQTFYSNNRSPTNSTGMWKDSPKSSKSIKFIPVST
row,Ki [nM],SMILES
1,41.7,"O=C1OC2(CCN(C(=O)c3cc4cc(Cl)ccc4[nH]3)CC2)c2ccc(F)cc21 [Example 1, 1′-[(5-chloro-1H-indol-2-yl)carbonyl]-5-fluoro-3H-spiro[2-benzofuran-1,4′-piperidin]-3-one]"
2,32.4,"O=C1OC2(CCN(C(=O)c3cc4cc(Cl)ccc4[nH]3)CC2)c2ccccc21 [Example 2, 1′-[(5-chloro-1H-indol-2-yl)carbonyl]-3H-spiro[2-benzofuran-1,4′-piperidin]-3-one]"
3,17.4,"CN(C)C(=O)Cn1c(C(=O)N2CCC3(CC2)OC(=O)c2ccccc23)cc2cc(Cl)ccc21 [Example 4, 2-{5-chloro-2-[(3-oxo-1′H,3H-spiro[2-benzofuran-1,4′-piperidin]-1′-yl)carbonyl]-1H-indol-1-yl}-N,N-dimethylacetamide]"
4,6.61,"N#CCc1cc(Cl)cc2cc(C(=O)N3CCC4(CC3)OC(=O)c3ccccc34)[nH]c12 [Example 5, {5-chloro-2-[(3-oxo-1′H,3H-spiro[2-benzofuran-1,4′-piperidin]-1′-yl)carbonyl]-1H-indol-7-yl}acetonitrile]"
5,17.8,"O=C(c1cc2cc(F)ccc2[nH]1)N1CCC2(CC1)OCc1ccccc12 [Example 6, 1′-[(5-fluoro-1H-indol-2-yl)carbonyl]-3H-spiro[2-benzofuran-1,4′-piperidine]]"
6,30.2,"COc1c(C(=O)N2CCC3(CC2)OCc2ccccc23)[nH]c2cccc(Br)c12 [Example 8, 1′-[(4-bromo-3-methoxy-1H-indol-2-yl)carbonyl]-3H-spiro[2-benzofuran-1,4′-piperidine]]"
7,5.5,"O=C(c1cc2cc(Cl)ccc2[nH]1)N1CCC2(CC1)OCc1ccccc12 [Example 9, 1′-[(5-chloro-1H-indol-2-yl)carbonyl]-3H-spiro[2-benzofuran-1,4′-piperidine]]"
8,2.09,"N#CCc1cc(Cl)cc2cc(C(=O)N3CCC4(CC3)OCc3ccccc34)[nH]c12 [Example 10, [5-chloro-2-(1′H,3H-spiro[2-benzofuran-1,4′-piperidin]-1′-ylcarbonyl)-1H-indol-7-yl]acetonitrile]"
9,3.8,"O=C(c1cc2cc(Cl)cc(CN3CCOCC3)c2[nH]1)N1CCC2(CC1)OCc1ccccc12 [Example 11, 1′-{[5-chloro-7-(morpholin-4-ylmethyl)-1H-indol-2-yl]carbonyl}-3H-spiro[2-benzofuran-1,4′-piperidine]]"
10,21.4,"CN1CCN(Cc2cc(Cl)cc3cc(C(=O)N4CCC5(CC4)OCc4ccccc45)[nH]c23)CC1 [Example 12, 1′-({5-chloro-7-[(4-methylpiperazin-1-yl)methyl]-1H-indol-2-yl}carbonyl)-3H-spiro[2-benzofuran-1,4′-piperidine]]"
11,7.76,"CN(C)CCNC(=O)Cc1cc(Cl)cc2cc(C(=O)N3CCC4(CC3)OCc3ccccc34)[nH]c12 [Example 13, 2-[5-chloro-2-(1′H,3H-spiro[2-benzofuran-1,4′-piperidin]-1′-ylcarbonyl)-1H-indol-7-yl]-N-[2-(dimethylamino)ethyl]acetamide]"
12,3.63,"CN(C)Cc1cc(Cl)cc2cc(C(=O)N3CCC4(CC3)OCc3ccccc34)[nH]c12 [Example 15, 1-[5-chloro-2-(1′H,3H-spiro[2-benzofuran-1,4′-piperidin]-1′-ylcarbonyl)-1H-indol-7-yl]-N,N-dimethylmethanamine]"
13,9.77,"Cc1ccc2c(C)c(C(=O)N3CCC4(CC3)COc3ccccc34)[nH]c2c1C [Example 24, 1′-[(3,6,7-trimethyl-1H-indol-2-yl)carbonyl]spiro[1-benzofuran-3,4′-piperidine]]"
14,7.24,"Cc1c(C(=O)N2CCC3(CC2)COc2ccccc23)[nH]c2c(C)cccc12 [Example 26, 1′-[(3,7-dimethyl-1H-indol-2-yl)carbonyl]spiro[1-benzofuran-3,4′-piperidine]]"
15,21.4,"N#CCn1c(C(=O)N2CCC3(CC2)C(=O)Nc2ccc(Br)cc23)cc2cc(Cl)ccc21 [Example 46, {2-[(5-Bromo-2-oxo-1,2-dihydro-1′H-spiro[indole-3,4′-piperidin]-1′-yl)carbonyl]-5-chloro-1H-indol-1-yl}acetonitrile]"

row,SMILES,Ki [nM]
1,"CN1CCN(C(=O)Cc2cc(Cl)cc3cc(C(=O)N4CCC5(CC4)OCc4ccccc45)[nH]c23)CC1 [Example 14, 1′-({5-chloro-7-[2-(4-methylpiperazin-1-yl)-2-oxoethyl]-1H-indol-2-yl}carbonyl)-3H-spiro[2-benzofuran-1,4′-piperidine]]",2.75
